Melting point data for three compounds are collected here from patent US7981907B2 (dated 2011).

Turning to `Cc1noc(C)c1-c1cccc(C[S+]([O-])CC(N)=O)c1` (stereo not drawn), the melting point was 34 to 43 °C.

`CC(=O)c1ccc(-c2ccccc2C[S+]([O-])CC(N)=O)cc1` (stereo not drawn): the melting point was in the range of 155 to 160 °C. Compound `Cc1ccc(C[S+]([O-])CC(N)=O)cc1-c1ccccc1` (stereo not drawn) yielded a melting point of 153 °C.

A word on the melting point: it is the temperature, or range, at which the solid turns liquid.
